In patent US20140088114A1, “FUSED BICYCLIC KINASE INHIBITORS” (OSI Pharmaceuticals ,LLC, priority 2011, published 2014):

Columns and labels:
Karpas-299 cells = test: Karpas-299 cell proliferation assay (CellTiter-Glo); assay type: cell-based; conditions: Homo sapiens, 72 h; Karpas-299 cell line (NPM-ALK), 3 days incubation, at least duplicate experiments; read-out: Prolif. IC50
Description: The effect of inhibitors on the proliferation of Karpas-299 cells (DSMZ no. ACC 31) was determined using the following protocol. Karpas-299 cells were plated in 96-well white tissue culture treated plates (Corning 3917) in growth medium (RPMI, 10% FCS) at a density of 5000 cells/well in a total volume of 135 μL and incubated at 37° C., 5% CO2, 95% humidity overnight. The following day, one-tenth volume of a 10× concentration of compounds was added to the wells in an 8-point dilution series. Compounds were serially diluted (1:4) in DMSO from a 10 mM stock solution prior to dilution in growth media to the 10× working concentrations (5% DMSO). Final concentration of DMSO in compound-treated wells was 0.5%. Control wells containing growth media or growth media/0.5% DMSO were included in all test plates. The typical dilution range is 10 μM to 0.1 nM. Once the compounds were added to the cells, plates were incubated for 3 days at 37° C., 5% CO2 at 95% humidity. After 72 hours, all cells and reagents were equilibrated to room temperature and 15 μL of CellTiter-Glo reagent (Promega #G7573) was added to each well. Plates were shaken on a platform for 10 minutes at room temperature prior to reading luminescence. The value of the signal of the control wells was set as 100% growth and growth inhibition was expressed as percent of control. IC50 values were determined from the percent of control data using a standard four-parameter curve fit equation.
The IC50 values of exemplary compounds of the present invention determined in a cell proliferation assay using the Karpas-299 cell line according to the procedures described herein in at least duplicate experiments are abbreviated as follows and are shown in Table 5: A, IC50≦0.03 μM; B, 0.03 μM<IC50≦0.1 μM; C, 0.1 μM<IC50≦1 μM; D, 1 μM<IC50≦3 μM; ND, not determined. The Example # of Table 5 corresponds to the compound example number as illustrated in the Examples section.
The Karpas-299 cell line has a t(2;5) chromosomal translocation and expresses the NPM-ALK fusion protein, resulting in constitutively active ALK. […] Ther. 6(12):3314-22 (2007)]. With this “ALK-driven” cell line by ALK, the cell proliferation IC50 values can thus be used as surrogate for the p-ALK cell mechanistic IC50 values.

c-MET = molecular target: T1, c-MET (Homo sapiens, UniProt P08581); test: MET cell mechanistic assay (MKN45), phosphorylated MET ELISA; assay type: cell-based; conditions: MKN45 cell line, 4 hours incubation, inhibition of phosphorylated MET, at least duplicate experiments; read-out: MET mech IC50
T1 construct: endogenous in cells; host or cells: MKN45
T1 sequence (P08581 25-1390): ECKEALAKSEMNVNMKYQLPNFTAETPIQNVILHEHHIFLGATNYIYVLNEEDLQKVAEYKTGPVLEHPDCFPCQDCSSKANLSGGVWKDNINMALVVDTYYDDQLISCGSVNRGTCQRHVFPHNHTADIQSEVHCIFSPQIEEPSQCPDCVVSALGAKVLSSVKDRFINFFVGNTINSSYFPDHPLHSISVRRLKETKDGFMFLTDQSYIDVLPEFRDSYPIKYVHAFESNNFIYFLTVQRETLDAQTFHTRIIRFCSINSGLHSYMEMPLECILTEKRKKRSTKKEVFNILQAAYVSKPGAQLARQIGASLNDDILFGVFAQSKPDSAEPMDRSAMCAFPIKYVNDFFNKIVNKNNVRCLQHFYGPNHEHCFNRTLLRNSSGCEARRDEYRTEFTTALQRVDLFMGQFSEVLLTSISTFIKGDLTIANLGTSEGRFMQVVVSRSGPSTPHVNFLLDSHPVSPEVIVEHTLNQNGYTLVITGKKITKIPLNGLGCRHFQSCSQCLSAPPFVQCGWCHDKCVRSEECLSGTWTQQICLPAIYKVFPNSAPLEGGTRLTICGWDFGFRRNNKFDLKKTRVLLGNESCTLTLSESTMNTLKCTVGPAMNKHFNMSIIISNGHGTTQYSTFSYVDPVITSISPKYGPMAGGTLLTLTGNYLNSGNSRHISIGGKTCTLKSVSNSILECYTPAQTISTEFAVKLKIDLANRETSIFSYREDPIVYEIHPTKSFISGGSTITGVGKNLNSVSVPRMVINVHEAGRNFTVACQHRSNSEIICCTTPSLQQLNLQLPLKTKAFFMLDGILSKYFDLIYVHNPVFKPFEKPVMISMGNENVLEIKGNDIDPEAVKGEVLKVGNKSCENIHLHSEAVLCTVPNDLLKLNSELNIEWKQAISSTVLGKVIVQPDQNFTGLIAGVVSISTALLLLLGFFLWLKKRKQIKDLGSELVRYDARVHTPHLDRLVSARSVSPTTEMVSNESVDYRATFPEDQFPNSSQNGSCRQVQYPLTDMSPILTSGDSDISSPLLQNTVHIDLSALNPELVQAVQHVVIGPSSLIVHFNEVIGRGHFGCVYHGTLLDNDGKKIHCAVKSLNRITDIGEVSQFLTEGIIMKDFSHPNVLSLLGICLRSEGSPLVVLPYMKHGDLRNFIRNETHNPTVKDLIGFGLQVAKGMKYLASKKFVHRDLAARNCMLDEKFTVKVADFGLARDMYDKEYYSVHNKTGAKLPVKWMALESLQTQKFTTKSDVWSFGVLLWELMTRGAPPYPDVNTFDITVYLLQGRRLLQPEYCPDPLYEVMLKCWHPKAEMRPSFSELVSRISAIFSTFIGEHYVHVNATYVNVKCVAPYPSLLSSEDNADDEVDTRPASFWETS
Description: The cellular activity of the compounds of the present invention against c-MET may be determined by the following procedure. MKN45 cells were plated in Falcon 3072 96-well plates in growth media (RPMI, 10% FBS, 1% L-glutamine) at a density of 5000 cells/well and incubated at 37° C., 5% CO2 overnight. The following day, one-tenth volume of a 10× concentration of compounds was added to the wells in a 6-point dilution series. The dilutions series was composed of an initial 1:5 dilution in DMSO, followed by a 1:10 dilution in growth media, for a final DMSO concentration on cells of 0.5%. Control wells were treated with 0.5% DMSO. The typical range of dilution was 10 μM to 3 nM. Once compound was added to the cells, plates were incubated for 4 hours at 37° C., 5% CO2. Plates were then washed in PBS, and lysed in triton-based lysis buffer. Lysates were transferred to a precoated capture plate made by Biosource (Cat #KHO0281). The phosphorylated MET levels were measured by incubating with a rabbit polyclonal antibody against phosphorylated MET ([pYpYpY1230/1234/1235]) followed by an anti-rabbit antibody conjugated to HRP. Signal was measured on a Wallac Victor plate reader at 450 nm. The DMSO signal of the control wells was defined as 100% and the percent of inhibition of phosphorylated MET was expressed as percent of control. IC50 values were determined from the percent of control data using a standard four-parameter model.
The IC50 values of exemplary compounds of the present invention determined in a MET cell mechanistic assay using the MKN45 cell line according to the procedures described herein in at least duplicate experiments are abbreviated as follows and are shown in Table 1: A, IC50≦0.03 μM; B, 0.03 μM<IC50≦0.1 μM; C, 0.1 μM<IC50≦1 μM; D, 1 μM<IC50≦3 μM; ND, not determined. The Example # of Table 1 corresponds to the compound Example number as illustrated in the Examples section. […]

Row | IC50 (Karpas-299 cells) [nM] | IC50 (c-MET) [nM] | Structure (SMILES)
1 | 100 to 1000 | 100 to 1000 | O[C@H]1CC[C@H](n2cc(-c3cnc4[nH]cc([C@@H](CF)c5c(OC(F)F)ccc(F)c5Cl)c4c3)cn2)CC1 [Example 4, trans-4-[4-(3-{(1R)-1-[2-Chloro-6-(difluoromethoxy)-3-fluorophenyl]-2-fluoroethyl}-1H-pyrrolo[2,3-b]pyridin-5-yl)-1H-pyrazol-1-yl]cyclohexanol]
2 | 100 to 1000 |  | Cn1cc(-c2cnc3[nH]cc(C(CF)c4c(Cl)ccc(F)c4Cl)c3c2)cn1 (stereo not shown) [Example 1, 3-[1-(2,6-Dichloro-3-fluorophenyl)-2-fluoroethyl]-5-(1-methyl-1H-pyrazol-4-yl)-1H-pyrrolo[2,3-b]pyridine]
3 | ≤ 30 | ≤ 30 | O[C@H]1CC[C@H](n2cc(-c3cnc4[nH]cc([C@H](CF)c5c(OC(F)F)ccc(F)c5Cl)c4c3)cn2)CC1 [Example 5, trans-4-[4-(3-{(1S)-1-[2-Chloro-6-(difluoromethoxy)-3-fluorophenyl]-2-fluoroethyl}-1H-pyrrolo[2,3-b]pyridin-5-yl)-1H-pyrazol-1-yl]cyclohexanol]
4 | 30 to 100 | ≤ 30 | COc1ccc(F)c(Cl)c1[C@@H](CF)c1c[nH]c2ncc(-c3cnn([C@H]4CC[C@H](O)CC4)c3)cc12 [Example 3, trans-4-(4-{3-[(1S)-1-(2-chloro-3-fluoro-6-methoxyphenyl)-2-fluoroethyl]-1H-pyrrolo[2,3-b]pyridin-5-yl}-1H-pyrazol-1-yl)cyclohexanol]
